Among the test systems are Malme-3M; HL-60; SNB-19; ACHN; NCI-H460; MCF7; A549; SK-OV-3; OVCAR-8; SR; IGROV-1; Hs-578T; PC-3; A498; K562; DU-145; NCI-H226; SF-268; U-251; NCI/ADR-RES.
Holding throughout (test): NCI-60 cell line screen, 48 h

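1) Cells in 96-well plates. 2) Compound, 48 h, 5 concentrations. 3) Linear interpolation between surrounding doses. 4) Unreached endpoint = highest concentration. The concentration for 50% growth inhibition is given as GI50.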 The source made the active and inactive calls. Rule as the data show it: active = GI50 up to about 1.1 µM and inactive = higher.

Regarding `COc1cccc2c1C(=O)c1ccc3cc(CCl)cc(O)c3c1C2=O`, the GI50 with Malme-3M is 0.188 µM (active); in the experiment on HL-60, 0.21 µM (active); with SNB-19, 0.897 µM (active); in the experiment on ACHN, 0.233 µM (active); with NCI-H460, 0.196 µM (active); with MCF7, 0.289 µM (active). In addition, the GI50 in the experiment with A549 was 0.414 µM (active); in the experiment with SK-OV-3 it was 1.19 µM (inactive); in the experiment with OVCAR-8, 0.228 µM (active); in the experiment on SR, 0.04 µM (active); in the experiment with IGROV-1, 1.03 µM (active); in the experiment on Hs-578T, 0.362 µM (active). Also, the GI50 in the experiment on PC-3 was 0.243 µM (active); in the experiment on A498, 1.19 µM (inactive); in the experiment on K562 it was 0.29 µM (active); in the experiment with DU-145 it was 0.762 µM (active); in the experiment on NCI-H226, 0.869 µM (active); in the experiment with SF-268, 0.379 µM (active). Moreover, the GI50 is 0.366 µM (active) with U-251 and 0.353 µM (active) in the experiment on NCI/ADR-RES.

For `O=C1CC(NC2CC(=O)c3c(Br)sc(Br)c32)c2c(Br)sc(Br)c21` (stereo not given), the GI50 is 2.29 µM (inactive) with Malme-3M; 2.46 µM (inactive) in the experiment on HL-60; 14.9 µM (inactive) in the experiment with SNB-19; 2.39 µM (inactive) in the experiment on ACHN; 18 µM (inactive) in the experiment on NCI-H460; 2.81 µM (inactive) in the experiment with MCF7. Also, the GI50 is 17.5 µM (inactive) with A549; 17.8 µM (inactive) with SK-OV-3; 3.26 µM (inactive) with OVCAR-8; 2.28 µM (inactive) with SR; 2.99 µM (inactive) with IGROV-1; 4.91 µM (inactive) with Hs-578T. Further, the GI50 was 2.48 µM (inactive) in the experiment on PC-3; 18.6 µM (inactive) with A498; 2.55 µM (inactive) with K562; 4.58 µM (inactive) in the experiment on DU-145; 17.4 µM (inactive) in the experiment with NCI-H226; 11.7 µM (inactive) with SF-268. Besides, the GI50 with U-251 was 1.82 µM (inactive); in the experiment with NCI/ADR-RES, 13.9 µM (inactive).

On to `NC(=O)c1nnsc1NC=O`, for which the GI50 in the experiment with Malme-3M, with HL-60, with SNB-19, in the experiment with ACHN, in the experiment with NCI-H460 and with MCF7 was > 100 µM (inactive) each time. The GI50 in the experiment on A549, in the experiment on SK-OV-3, in the experiment on OVCAR-8, in the experiment with SR, with IGROV-1 and in the experiment on Hs-578T was > 100 µM (inactive) each time. Besides, the GI50 in the experiment on PC-3, in the experiment on A498, with K562, in the experiment with DU-145, with NCI-H226 and in the experiment with SF-268 was > 100 µM (inactive) each time. For the same compound, the GI50 in the experiment with U-251 and in the experiment on NCI/ADR-RES was > 100 µM (inactive) throughout.

For the compound `C/N=c1\sc2nc(C#N)c(C#N)nc2n1C`, the GI50 in the experiment on Malme-3M is 17.6 µM (inactive); in the experiment with HL-60, 10.9 µM (inactive); in the experiment on SNB-19, 28.4 µM (inactive); in the experiment with ACHN, 22.5 µM (inactive); in the experiment with NCI-H460, 19.1 µM (inactive); with MCF7, 18.5 µM (inactive). For the same compound, the GI50 in the experiment on A549 was 18 µM (inactive); in the experiment with SK-OV-3 it was 28 µM (inactive); with OVCAR-8 it was > 10 µM (inactive); in the experiment with SR, > 57 µM (inactive); with IGROV-1 it was 25.2 µM (inactive); in the experiment on Hs-578T, 31.1 µM (inactive). The GI50 was 40.2 µM (inactive) in the experiment with PC-3; 20.5 µM (inactive) with A498; 25.6 µM (inactive) with K562; 36.6 µM (inactive) in the experiment on DU-145; 16.2 µM (inactive) in the experiment on NCI-H226; 32.4 µM (inactive) in the experiment with SF-268. In addition, the values for the GI50 in the experiment on U-251 and in the experiment on NCI/ADR-RES were 22.4 µM (inactive) and 25.5 µM (inactive), respectively.

`NC1CC(=O)c2csc(Br)c21` (stereo not given): the GI50 with Malme-3M is 17.2 µM (inactive); with HL-60, 4.39 µM (inactive); in the experiment on SNB-19, 23.3 µM (inactive); in the experiment on ACHN, 16.4 µM (inactive); with NCI-H460, 20.3 µM (inactive); with MCF7, 21.1 µM (inactive). Besides, the GI50 with A549 is 36.7 µM (inactive); with SK-OV-3, > 64.6 µM (inactive); in the experiment with OVCAR-8, 16.6 µM (inactive); in the experiment with SR, 5.09 µM (inactive); in the experiment with IGROV-1, 7.76 µM (inactive); with Hs-578T, 17.4 µM (inactive). Moreover, the GI50 in the experiment on PC-3 was 14 µM (inactive); in the experiment on A498, > 36.5 µM (inactive); with K562 it was 5.97 µM (inactive); with DU-145, 20.7 µM (inactive); in the experiment on NCI-H226, 22.9 µM (inactive); in the experiment with SF-268, 20 µM (inactive). The figures for the GI50 in the experiment with U-251 and in the experiment on NCI/ADR-RES were 18.1 µM (inactive) and 20.1 µM (inactive), respectively.

For the compound `O=c1ccn(C2OC(CO)C(O)C2[Se]c2ccccc2)c(=O)[nH]1` (stereo not given), the GI50 in the experiment on Malme-3M, in the experiment on HL-60, in the experiment with SNB-19, in the experiment on ACHN, with NCI-H460 and with MCF7 was > 100 µM (inactive) throughout. The GI50 in the experiment on A549, in the experiment on SK-OV-3, in the experiment on OVCAR-8, with SR, in the experiment with IGROV-1 and with Hs-578T was > 100 µM (inactive) each time. The GI50 with PC-3, in the experiment on A498, in the experiment on K562, in the experiment with DU-145, with NCI-H226 and in the experiment on SF-268 was > 100 µM (inactive) in each case. The GI50 with U-251 and in the experiment on NCI/ADR-RES was > 100 µM (inactive) in each case.

As for `C/C(=N\NC(=S)N1CCCCCC1)c1cccc2cccnc12`, the GI50 in the experiment on Malme-3M is 3.17 µM (inactive); with HL-60, 1.25 µM (inactive); in the experiment on SNB-19 it was 1.76 µM (inactive); in the experiment on ACHN, 0.375 µM (active); in the experiment with NCI-H460, 0.681 µM (active); in the experiment with MCF7, 0.984 µM (active). For the same compound, the GI50 with A549 is 1.13 µM (inactive); in the experiment on SK-OV-3, 3.77 µM (inactive); in the experiment on OVCAR-8 it was 1.38 µM (inactive); in the experiment with SR it was < 0.01 µM (active); in the experiment on IGROV-1 it was 1.86 µM (inactive); in the experiment with Hs-578T, 19.7 µM (inactive). Also, the GI50 is 3.81 µM (inactive) with PC-3; 5.64 µM (inactive) with A498; 0.131 µM (active) with K562; 2.95 µM (inactive) in the experiment on DU-145; 0.589 µM (active) in the experiment on NCI-H226; 4.29 µM (inactive) in the experiment on SF-268. For the same compound, the values for the GI50 with U-251 and in the experiment with NCI/ADR-RES were 0.839 µM (active) and 1.03 µM (active), respectively.

As to `CC(C)c1ccc2nc3ccc(C(=O)NCCN(C)C)cn3c(=O)c2c1`, the GI50 in the experiment on Malme-3M is 3.37 µM (inactive); in the experiment on HL-60, 16.3 µM (inactive); in the experiment with SNB-19, 35 µM (inactive); in the experiment on ACHN, 27.5 µM (inactive); in the experiment on NCI-H460, 17.6 µM (inactive); in the experiment with MCF7, 16.3 µM (inactive). Further, the GI50 was 17.4 µM (inactive) with A549; 17.5 µM (inactive) in the experiment on SK-OV-3; 18.8 µM (inactive) in the experiment with OVCAR-8; 17.5 µM (inactive) in the experiment with SR; 30.8 µM (inactive) with IGROV-1; 15.2 µM (inactive) in the experiment on Hs-578T. In addition, the GI50 is 13.6 µM (inactive) with PC-3; 14 µM (inactive) in the experiment with A498; 2.57 µM (inactive) in the experiment with K562; 34.7 µM (inactive) in the experiment on DU-145; 18 µM (inactive) in the experiment on NCI-H226; 17.5 µM (inactive) in the experiment with SF-268. The figures for the GI50 in the experiment with U-251 and in the experiment on NCI/ADR-RES were 19.9 µM (inactive) and 18.2 µM (inactive), respectively.

Turning to `CC(C)=CC(=O)C[C@H]1C(=O)O[C@@H]2C[C@H]3C(C)=CC(=O)[C@@H](O)[C@]3(C)[C@H]3[C@@]4(O)OC[C@]32[C@@H]1[C@@H](C)[C@H]4O`, the GI50 with Malme-3M was < 0.01 µM (active); with HL-60, < 0.01 µM (active); with SNB-19 it was < 0.0127 µM (active); in the experiment on ACHN it was 0.0278 µM (active); in the experiment with NCI-H460, < 0.01 µM (active); with MCF7, < 0.01 µM (active). Besides, the GI50 was 0.122 µM (active) with A549; 0.187 µM (active) in the experiment with SK-OV-3; < 0.01 µM (active) with OVCAR-8; < 0.01 µM (active) in the experiment with SR; < 0.01 µM (active) in the experiment with IGROV-1; 0.029 µM (active) in the experiment with Hs-578T. The GI50 in the experiment with PC-3 was 0.0159 µM (active); in the experiment with A498, 0.236 µM (active); with K562, < 0.01 µM (active); with DU-145 it was 0.0177 µM (active); with NCI-H226, < 0.01 µM (active); in the experiment on SF-268 it was 0.0275 µM (active). Also, the GI50 was < 0.01 µM (active) in the experiment on U-251 and 0.631 µM (active) with NCI/ADR-RES.

Turning to `CC1(C)CC[C@]2(C(=O)O)CC[C@]3(C)C(=CC[C@@H]4[C@@]5(C)C[C@H](O)[C@H](O)[C@@](C)(C(=O)O)[C@@H]5CC[C@]43C)[C@@H]2C1`, the GI50 in the experiment with Malme-3M was > 100 µM (inactive); with HL-60, > 31.6 µM (inactive); in the experiment with SNB-19, > 100 µM (inactive); with ACHN, > 100 µM (inactive); with NCI-H460 it was > 100 µM (inactive); with MCF7, > 100 µM (inactive). The GI50 with A549 was > 100 µM (inactive); with SK-OV-3 it was > 100 µM (inactive); in the experiment on OVCAR-8, > 100 µM (inactive); with SR, > 100 µM (inactive); in the experiment on IGROV-1, > 89.3 µM (inactive); in the experiment with Hs-578T, > 100 µM (inactive). In addition, the GI50 was > 100 µM (inactive) with PC-3; > 100 µM (inactive) in the experiment with A498; 78.3 µM (inactive) with K562; > 100 µM (inactive) in the experiment with DU-145; > 90.8 µM (inactive) in the experiment on NCI-H226; > 100 µM (inactive) with SF-268. The GI50 in the experiment on U-251 and in the experiment with NCI/ADR-RES was > 100 µM (inactive) throughout.

The values are drawn from ChEMBL document CHEMBL1201862, “PubChem BioAssay data set” (2004).
